How the values were obtained:
canine myoglobin = assay: Serum canine myoglobin ELISA (muscle damage biomarker), Example 1; type: in vivo, dog; conditions: for Change in Myoglobin, post-run minus pre-run: following 15 mile long run at 13 wk, mean ± SEM
Description: (§1) Blood Analysis: Serum samples were taken at three different times from each dog during the 90 day period. The blood samples were collected as follows: 1.) just prior to scanning each dog for body composition at the beginning of the study, 2.) prior to the long run on the 13th week, and 3.) following the long run on the 13th week. The serum samples were analyzed for Phosphocreatine Kinase and Canine Myoglobin to determine the amount of muscle protein leakage that occurred following the long run and TBARS and Total Antioxidant Capacity (TAC) were determined to evaluate the antioxidant status of each of the test dogs during the exercise program. The final blood sample was taken 24 hr after the long run to obtain maximum protein leakage based on previous similar types of exercise research with human athletes. Biomarkers and Assay Methods: Blood was drawn from each dog using a serum separator tube at three different times during the 90 day period: 1.) just prior to scanning each dog for body composition at the beginning of the study, 2.) prior to the long run on the 13th week, and 3.) following the long run on the 13th week. The final blood sample was taken 24 hr after the long run to obtain maximum protein leakage based on previous similar types of exercise research with human athletes. Each time after the blood was drawn it was allowed to clot before being centrifuged for 15 min at 2000 g at 4° C. Serum was aliquoted into 1.5 mL microcentrifuge tubes and stored at −80° C. until assays were ran following the end of the study. Creatine kinase (CK) and canine myoglobin were measured to determine the amount of muscle protein leakage that occurred following the long run. Thiobarbituric acid reactive substances (TBARS) and total antioxidant capacity (TAC) were measured to evaluate the antioxidant status of each of the test dogs during the exercise program. Serum samples were analyzed for total antioxidant capacity (TAC) and thiobarbituric acid reactive substances (TBARS) using commercially available colorimetric kits supplied by Cayman Chemical Company (Ann Arbor, Mich.) per manufacturer instructions. Serum canine myoglobin levels were determined using a commercially available ELISA supplied by Innovate Research (Novi, Mich.) per manufacturer instructions. Creatine kinase activity was determined colorimetrically using a commercially available kit supplied by BioVision (San Francisco, Calif.).

[1] = tested on: total antioxidant capacity (TAC); assay: Serum total antioxidant capacity (TAC), Example 1; type: in vivo, dog; conditions: for Change in TAC, post-run minus pre-run: following 15 mile long run at 13 wk, mean ± SEM
Description: as §1

[2] = Ex.1, 250 mg/d, Baseline, both sexes
[3] = Ex.1, 250 mg/d, Baseline, females
[4] = Ex.1, 250 mg/d, Baseline, males
[5] = Ex.1, 250 mg/d, Post-run, both sexes
[6] = Ex.1, 250 mg/d, Post-run, females
[7] = Ex.1, 250 mg/d, Post-run, males
[8] = Ex.1, 250 mg/d, Pre-run, both sexes
[9] = Ex.1, 250 mg/d, Pre-run, females

In the case of `C[N+](C)(C)C[C@H](O)CC(=O)[O-]` [L-carnitine], the “Myoglobin Least Sq Mean” value (canine myoglobin; Baseline) is reported as 10.1 ng/mL, the “Myoglobin Least Sq Mean” value (canine myoglobin; Baseline, F) is reported as 14.77 ng/mL and the “Myoglobin Least Sq Mean” value (canine myoglobin; Baseline, M) is reported as 5.43 ng/mL. The “Myoglobin, serum, Mean” value (canine myoglobin; [2]) was 10.0 ng/mL, the “Myoglobin, serum, Mean” value (canine myoglobin; [3]) was 17.6 ng/mL and the “Myoglobin, serum, Mean” value (canine myoglobin; [4]) was 5.8 ng/mL. For the same compound, the “Myoglobin, serum, Mean” value (canine myoglobin; [5]) was 19.2 ng/mL, the “Myoglobin, serum, Mean” value (canine myoglobin; [6]) was 24.5 ng/mL and the “Myoglobin, serum, Mean” value (canine myoglobin; [7]) was 14.9 ng/mL. For the same compound, the “Myoglobin, serum, Mean” value (canine myoglobin; [8]) was 9.0 ng/mL, the “Myoglobin, serum, Mean” value (canine myoglobin; [9]) was 8.4 ng/mL and the “Myoglobin, serum, Mean” value (canine myoglobin; Ex.1, 250 mg/d, Pre-run, males) was 9.3 ng/mL. For the same compound, the “Change in Myoglobin, post-run minus pre-run” value (canine myoglobin; Ex.1, 250 mg/d, females) was 6.11 ± 3.51 n = 6 ng/mL, the “Change in Myoglobin, post-run minus pre-run” value (canine myoglobin; Ex.1, 250 mg/d, males) was 7.04 ± 3.9 n = 10 ng/mL and the “Serum myoglobin values after exercise” value (canine myoglobin; Ex.1, 250 mg/d, post-run, summary text value, control 30.97) was 19.67 ng/mL. For the same compound, the “Myoglobin Least Sq Mean” value (canine myoglobin; Post-run) was 19.67 ng/mL, the “Myoglobin Least Sq Mean” value (canine myoglobin; Post-run, F) was 24.46 ng/mL and the “Myoglobin Least Sq Mean” value (canine myoglobin; Post-run, M) was 14.88 ng/mL. For the same compound, the “Myoglobin Least Sq Mean” value (canine myoglobin; Pre-run) was 10.01 ng/mL, the “Myoglobin Least Sq Mean” value (canine myoglobin; Pre-run, F) was 11.06 ng/mL and the “Myoglobin Least Sq Mean” value (canine myoglobin; Pre-run, M) was 8.96 ng/mL. For the same compound, the “Myoglobin Least Sq Mean” value (canine myoglobin; Treatment * Sex, F) was 14.77 ng/mL, the “Myoglobin Least Sq Mean” value (canine myoglobin; Treatment * Sex, M) was 5.43 ng/mL and the “Myoglobin Least Sq Mean” value (canine myoglobin; Treatment level, all dogs) was 10.1 ng/mL. The “Myoglobin, mixed model Estimate, term Time[Post-run-Pre-run] * Treatment[L-carnitine]” value (canine myoglobin; serum, model term) was −7.625, the “Myoglobin, mixed model Estimate, term Time[Post-run-Pre-run] * Treatment[L-carnitine] * Sex[F]” value (canine myoglobin; serum, model term) was −3.63 and the “Myoglobin, mixed model Estimate, term Time[Pre-run-Baseline] * Treatment[L-carnitine]” value (canine myoglobin; serum, model term) was 0.3222. For the same compound, the “Myoglobin, mixed model Estimate, term Time[Pre-run-Baseline] * Treatment[L-carnitine] * Sex[F]” value (canine myoglobin; serum, model term) was −0.369, the “Myoglobin, mixed model Estimate, term Treatment[L-carnitine]” value (canine myoglobin; serum, model term) was 1.653 and the “Myoglobin, mixed model Estimate, term Treatment[L-carnitine] * Sex[F]” value (canine myoglobin; serum, model term) was 1.582. For the same compound, the “TAC Least Sq Mean” value ([1]; Baseline) was 0.1066 mM Trolox Equiv, the “TAC Least Sq Mean” value ([1]; Baseline, F) was 0.1064 mM Trolox Equiv and the “TAC Least Sq Mean” value ([1]; Baseline, M) was 0.1067 mM Trolox Equiv. For the same compound, the “TAC, serum, Mean” value [1, 2] was 0.107 mM Trolox Equiv, the “TAC, serum, Mean” value [1, 3] was 0.106 mM Trolox Equiv and the “TAC, serum, Mean” value [1, 4] was 0.107 mM Trolox Equiv. The “TAC, serum, Mean” value [1, 5] was 0.087 mM Trolox Equiv, the “TAC, serum, Mean” value [1, 6] was 0.069 mM Trolox Equiv and the “TAC, serum, Mean” value [1, 7] was 0.102 mM Trolox Equiv. The “TAC, serum, Mean” value [1, 8] was 0.118 mM Trolox Equiv, the “TAC, serum, Mean” value [1, 9] was 0.106 mM Trolox Equiv and the “TAC, serum, Mean” value ([1]; Ex.1, 250 mg/d, Pre-run, males) was 0.128 mM Trolox Equiv. For the same compound, the “Effect on TAC of the test dogs” value ([1]; Ex.1, 250 mg/d, during the study, vs control) was “did not have a significant effect”, the “Change in TAC, post-run minus pre-run” value ([1]; Ex.1, 250 mg/d, both sexes) was −0.03 ± 0.01 n = 20 mM Trolox Equiv and the “Change in TAC, post-run minus pre-run” value ([1]; Ex.1, 250 mg/d, females) was −0.04 ± 0.01 n = 9 mM Trolox Equiv. For the same compound, the “Change in TAC, post-run minus pre-run” value ([1]; Ex.1, 250 mg/d, males) was −0.03 ± 0.01 n = 11 mM Trolox Equiv, the “TAC Least Sq Mean” value ([1]; Post-run) was 0.08522 mM Trolox Equiv and the “TAC Least Sq Mean” value ([1]; Post-run, F) was 0.06866 mM Trolox Equiv. For the same compound, the “TAC Least Sq Mean” value ([1]; Post-run, M) was 0.1018 mM Trolox Equiv, the “TAC Least Sq Mean” value ([1]; Pre-run) was 0.1171 mM Trolox Equiv and the “TAC Least Sq Mean” value ([1]; Pre-run, F) was 0.1063 mM Trolox Equiv. For the same compound, the “TAC Least Sq Mean” value ([1]; Pre-run, M) was 0.128 mM Trolox Equiv, the “TAC Least Sq Mean” value ([1]; Treatment * Sex, F) was 0.1064 mM Trolox Equiv and the “TAC Least Sq Mean” value ([1]; Treatment * Sex, M) was 0.1067 mM Trolox Equiv. For the same compound, the “TAC Least Sq Mean” value ([1]; Treatment level, all dogs) was 0.1066 mM Trolox Equiv, the “Total Antioxidant capacity, mixed model Estimate, term Time[Post-run-Pre-run] * Treatment[L-carnitine]” value ([1]; serum, model term) was −0.001428 and the “Total Antioxidant capacity, mixed model Estimate, term Time[Post-run-Pre-run] * Treatment[L-carnitine] * Sex[F]” value ([1]; serum, model term) was −0.001227. The “Total Antioxidant capacity, mixed model Estimate, term Time[Pre-run-Baseline] * Treatment[L-carnitine]” value ([1]; serum, model term) was −0.00085, the “Total Antioxidant capacity, mixed model Estimate, term Time[Pre-run-Baseline] * Treatment[L-carnitine] * Sex[F]” value ([1]; serum, model term) was 0.001958 and the “Total Antioxidant capacity, mixed model Estimate, term Treatment[L-carnitine]” value ([1]; serum, model term) was 0.001356. The “Total Antioxidant capacity, mixed model Estimate, term Treatment[L-carnitine] * Sex[F]” value ([1]; serum, model term) was 0.001671.
